Assay [1] has as its target T1, Voltage-dependent L-type calcium channel subunit alpha-1C (Cavia porcellus, UniProt O35505). Briefly: (§1) Inhibition of Cav1.2 calcium current measured using whole cell patch clamp in guinea pig ventricular myocytes. Format: functional, cell-based, Heart, Ventricular myocyte. Also noted: ca sol conc 5 mM, temp 20-22 C. Background: In patch-clamp work, channel activity is measured electrically.

The target of assay [2] is T1, Voltage-dependent L-type calcium channel subunit alpha-1C. The description is as §1. It is filed as functional, cell-based, Heart, Ventricular myocyte. Also noted: ca sol conc 5 mM, temp 20-22 C. This is another data set of the same source.
Assay [3] has as its target T2, Voltage-dependent L-type calcium channel subunit alpha-1C (Rattus norvegicus, UniProt P22002). The experiment in a line: Inhibition of Cav1.2 calcium current measured using whole cell patch clamp in rat Artery myocytes. Format: functional, cell-based, Tail. On the set-up: ca sol conc 5 mM, temp 20-22 C.
Assay [4] deals with T3, Voltage-dependent L-type calcium channel subunit alpha-1C (Mus musculus, UniProt Q01815). The experiment in a line: (§2) Inhibition of Cav1.2 calcium current measured using whole cell patch clamp in mouse ventricular myocytes. It is filed as functional, cell-based, Heart. Also noted: ca sol conc 2.5 mM, temp 22-24 C. The following applies: ventricular myocyte.
For assay [5], the target named is T1, Voltage-dependent L-type calcium channel subunit alpha-1C. Briefly: Inhibition of Cav1.2 calcium current measured using whole cell patch clamp in guinea pig atrial myocytes. It is filed as functional, cell-based, Heart, Cardiac Muscle Cell. On the set-up: ca sol conc 1.8 mM, temp 36 pm 1 C.
The target is the same in assay [6]. Described as §1. It is filed as functional, cell-based, Heart, Ventricular myocyte. Also noted: ca sol conc 1.8 mM, temp 25-27 C.
The target is the same in assay [7]. The description is as §1. Format: functional, cell-based, Heart, Ventricular myocyte. On the set-up: ca sol conc 1.8 mM.
For assay [8] the target is unchanged. The assay is described as §1. Format: functional, cell-based, Heart, Ventricular myocyte. Also noted: ca sol conc 1.8 mM. The source holds these as a separate data set.
Assay [9] deals with T2, Voltage-dependent L-type calcium channel subunit alpha-1C. The experiment in a line: (§3) Inhibition of Cav1.2 calcium current measured using whole cell patch clamp in rat ventricular myocytes. Format: functional, cell-based, Heart, Ventricular myocyte. On the set-up: ca sol conc 1 mM, temp 34 C.
Assay [10] has as its target T3, Voltage-dependent L-type calcium channel subunit alpha-1C. Described as §2. Format: functional, cell-based, Heart, Ventricular myocyte. Also noted: ca sol conc 2 mM, temp room.
For assay [11] the target is unchanged. The assay is described as §2. It is filed as functional, cell-based, Heart, Ventricular myocyte. On the set-up: ca sol conc 2 mM, temp room. The source holds these as a separate data set.
The target of assay [12] is T2, Voltage-dependent L-type calcium channel subunit alpha-1C. Described as §3. It is filed as functional, cell-based, Heart, Ventricular myocyte. Also noted: ca sol conc 1.8 mM, temp 25 C.
The target is the same in assay [13]. Briefly: (§4) Inhibition of Cav1.2 calcium current measured using whole cell patch clamp in rat myocyte. Format: functional, Heart. On the set-up: ca sol conc 1.8 mM, temp 20-25 C. The following applies: cardiac muscle cell.
Assay [14] shares this target. The assay is described as §4. Also noted: ca sol conc 1.8 mM, temp 20-25 C. It is filed as functional, Heart, Cardiac Muscle Cell.
For assay [15], the target named is Voltage-dependent L-type calcium channel subunit alpha-1C (Oryctolagus cuniculus, UniProt P15381). The experiment in a line: Inhibition of Cav1.2 calcium current measured using whole cell patch clamp in rabbit ventricular myocytes. It is filed as functional, cell-based, Heart, Ventricular myocyte. On the set-up: ca sol conc 1 - BaCl2 mM, temp 37 C.
Assay [16] deals with T2, Voltage-dependent L-type calcium channel subunit alpha-1C. The assay is described as §3. On the set-up: ca sol conc 1.8 mM, temp 25-27 C. Format: functional, cell-based, Heart, Ventricular myocyte.
The target of assay [17] is L-type calcium channel alpha 1C/beta 2A (Oryctolagus cuniculus, UniProt P15381+P54288). The experiment in a line: Inhibition of Cav1.2 calcium current measured using whole cell patch clamp in human HEK293 cells transfected with rabbit L-type calcium channel subunits. It is filed as functional, cell-based. On the set-up: ca sol conc 5 mM, temp room.
The target of assay [18] is T2, Voltage-dependent L-type calcium channel subunit alpha-1C. Briefly: Inhibition of Cav1.2 calcium current measured using FLIPR in rat aortic A7r5 cells. Format: functional, cell-based.
The target is the same in assay [19]. The description is as §3. Format: functional, cell-based, Heart, Ventricular myocyte. On the set-up: ca sol conc 1 mM, temp 22-25 C.
For assay [20] the target is unchanged. The assay is described as §3. It is filed as functional, cell-based, Heart, Ventricular myocyte. Also noted: ca sol conc 1.8 mM.
For assay [21], the target named is T1, Voltage-dependent L-type calcium channel subunit alpha-1C. The assay is described as §1. It is filed as functional, cell-based, Heart, Ventricular myocyte. Also noted: ca sol conc 1 mM, temp 35 C.
The target is the same in assay [22]. The assay is described as §1. It is filed as functional, cell-based, Heart, Ventricular myocyte. On the set-up: ca sol conc 1.8 mM, temp 35-36 C.
Assay [23] deals with T3, Voltage-dependent L-type calcium channel subunit alpha-1C. The description is as §2. Format: functional, cell-based, Heart, Ventricular myocyte. On the set-up: ca sol conc 2.5 mM, temp 22-24 C.

For orientation: IC50 means the concentration that gives 50% inhibition.

T2 sequence (P22002 whole entry): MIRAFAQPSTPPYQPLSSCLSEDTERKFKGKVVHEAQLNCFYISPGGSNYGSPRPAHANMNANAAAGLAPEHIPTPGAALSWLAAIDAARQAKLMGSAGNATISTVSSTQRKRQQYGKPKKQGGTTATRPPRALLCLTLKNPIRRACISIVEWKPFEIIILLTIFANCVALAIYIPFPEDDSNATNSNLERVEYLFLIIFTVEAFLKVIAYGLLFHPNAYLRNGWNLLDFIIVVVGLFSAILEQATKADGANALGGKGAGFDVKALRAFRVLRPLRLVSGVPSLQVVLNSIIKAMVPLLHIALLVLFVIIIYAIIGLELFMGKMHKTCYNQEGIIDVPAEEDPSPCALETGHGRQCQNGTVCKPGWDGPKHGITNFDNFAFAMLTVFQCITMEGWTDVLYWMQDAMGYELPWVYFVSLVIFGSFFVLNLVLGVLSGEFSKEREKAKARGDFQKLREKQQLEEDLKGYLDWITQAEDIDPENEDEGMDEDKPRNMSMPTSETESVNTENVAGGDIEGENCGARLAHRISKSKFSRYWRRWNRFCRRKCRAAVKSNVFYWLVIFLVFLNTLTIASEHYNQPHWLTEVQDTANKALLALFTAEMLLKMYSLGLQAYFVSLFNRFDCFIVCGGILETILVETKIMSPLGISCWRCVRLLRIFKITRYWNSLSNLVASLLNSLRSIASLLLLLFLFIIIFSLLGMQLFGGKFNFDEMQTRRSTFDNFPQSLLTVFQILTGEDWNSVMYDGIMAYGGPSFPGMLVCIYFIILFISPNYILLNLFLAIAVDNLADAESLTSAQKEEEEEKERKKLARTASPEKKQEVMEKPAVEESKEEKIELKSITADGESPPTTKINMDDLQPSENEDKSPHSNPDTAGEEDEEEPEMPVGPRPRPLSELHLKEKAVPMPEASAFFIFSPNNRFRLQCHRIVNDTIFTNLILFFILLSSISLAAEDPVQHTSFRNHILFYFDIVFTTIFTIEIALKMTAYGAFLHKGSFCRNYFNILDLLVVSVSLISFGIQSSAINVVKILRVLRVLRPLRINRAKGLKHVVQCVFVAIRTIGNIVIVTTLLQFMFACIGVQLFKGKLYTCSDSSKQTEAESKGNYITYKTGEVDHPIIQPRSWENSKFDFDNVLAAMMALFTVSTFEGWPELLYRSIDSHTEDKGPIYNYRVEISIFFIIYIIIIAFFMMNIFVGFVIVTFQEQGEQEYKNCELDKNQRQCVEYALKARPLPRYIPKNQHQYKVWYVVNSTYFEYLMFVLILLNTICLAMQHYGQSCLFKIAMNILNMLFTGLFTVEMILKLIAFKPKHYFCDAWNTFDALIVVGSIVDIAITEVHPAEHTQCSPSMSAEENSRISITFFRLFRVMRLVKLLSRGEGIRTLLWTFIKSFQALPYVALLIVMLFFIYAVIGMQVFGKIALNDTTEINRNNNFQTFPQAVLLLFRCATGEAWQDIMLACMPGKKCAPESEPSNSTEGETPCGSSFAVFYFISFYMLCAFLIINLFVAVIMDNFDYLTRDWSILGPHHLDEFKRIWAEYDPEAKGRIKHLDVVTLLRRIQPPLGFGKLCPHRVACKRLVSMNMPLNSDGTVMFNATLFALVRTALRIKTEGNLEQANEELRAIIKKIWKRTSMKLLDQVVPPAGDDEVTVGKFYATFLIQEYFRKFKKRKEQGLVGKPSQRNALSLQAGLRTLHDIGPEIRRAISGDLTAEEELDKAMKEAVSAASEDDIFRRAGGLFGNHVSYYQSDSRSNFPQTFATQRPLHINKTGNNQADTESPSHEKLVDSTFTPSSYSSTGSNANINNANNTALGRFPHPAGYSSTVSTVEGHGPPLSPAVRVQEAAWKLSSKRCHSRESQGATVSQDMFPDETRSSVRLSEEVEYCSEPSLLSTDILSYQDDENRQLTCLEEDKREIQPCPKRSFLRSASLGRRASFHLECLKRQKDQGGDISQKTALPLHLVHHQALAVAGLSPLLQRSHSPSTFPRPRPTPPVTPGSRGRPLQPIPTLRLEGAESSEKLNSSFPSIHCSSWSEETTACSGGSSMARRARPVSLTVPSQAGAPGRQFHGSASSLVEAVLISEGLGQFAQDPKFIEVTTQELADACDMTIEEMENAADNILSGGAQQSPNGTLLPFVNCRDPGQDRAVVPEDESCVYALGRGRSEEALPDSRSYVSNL
T3 sequence (Q01815 whole entry): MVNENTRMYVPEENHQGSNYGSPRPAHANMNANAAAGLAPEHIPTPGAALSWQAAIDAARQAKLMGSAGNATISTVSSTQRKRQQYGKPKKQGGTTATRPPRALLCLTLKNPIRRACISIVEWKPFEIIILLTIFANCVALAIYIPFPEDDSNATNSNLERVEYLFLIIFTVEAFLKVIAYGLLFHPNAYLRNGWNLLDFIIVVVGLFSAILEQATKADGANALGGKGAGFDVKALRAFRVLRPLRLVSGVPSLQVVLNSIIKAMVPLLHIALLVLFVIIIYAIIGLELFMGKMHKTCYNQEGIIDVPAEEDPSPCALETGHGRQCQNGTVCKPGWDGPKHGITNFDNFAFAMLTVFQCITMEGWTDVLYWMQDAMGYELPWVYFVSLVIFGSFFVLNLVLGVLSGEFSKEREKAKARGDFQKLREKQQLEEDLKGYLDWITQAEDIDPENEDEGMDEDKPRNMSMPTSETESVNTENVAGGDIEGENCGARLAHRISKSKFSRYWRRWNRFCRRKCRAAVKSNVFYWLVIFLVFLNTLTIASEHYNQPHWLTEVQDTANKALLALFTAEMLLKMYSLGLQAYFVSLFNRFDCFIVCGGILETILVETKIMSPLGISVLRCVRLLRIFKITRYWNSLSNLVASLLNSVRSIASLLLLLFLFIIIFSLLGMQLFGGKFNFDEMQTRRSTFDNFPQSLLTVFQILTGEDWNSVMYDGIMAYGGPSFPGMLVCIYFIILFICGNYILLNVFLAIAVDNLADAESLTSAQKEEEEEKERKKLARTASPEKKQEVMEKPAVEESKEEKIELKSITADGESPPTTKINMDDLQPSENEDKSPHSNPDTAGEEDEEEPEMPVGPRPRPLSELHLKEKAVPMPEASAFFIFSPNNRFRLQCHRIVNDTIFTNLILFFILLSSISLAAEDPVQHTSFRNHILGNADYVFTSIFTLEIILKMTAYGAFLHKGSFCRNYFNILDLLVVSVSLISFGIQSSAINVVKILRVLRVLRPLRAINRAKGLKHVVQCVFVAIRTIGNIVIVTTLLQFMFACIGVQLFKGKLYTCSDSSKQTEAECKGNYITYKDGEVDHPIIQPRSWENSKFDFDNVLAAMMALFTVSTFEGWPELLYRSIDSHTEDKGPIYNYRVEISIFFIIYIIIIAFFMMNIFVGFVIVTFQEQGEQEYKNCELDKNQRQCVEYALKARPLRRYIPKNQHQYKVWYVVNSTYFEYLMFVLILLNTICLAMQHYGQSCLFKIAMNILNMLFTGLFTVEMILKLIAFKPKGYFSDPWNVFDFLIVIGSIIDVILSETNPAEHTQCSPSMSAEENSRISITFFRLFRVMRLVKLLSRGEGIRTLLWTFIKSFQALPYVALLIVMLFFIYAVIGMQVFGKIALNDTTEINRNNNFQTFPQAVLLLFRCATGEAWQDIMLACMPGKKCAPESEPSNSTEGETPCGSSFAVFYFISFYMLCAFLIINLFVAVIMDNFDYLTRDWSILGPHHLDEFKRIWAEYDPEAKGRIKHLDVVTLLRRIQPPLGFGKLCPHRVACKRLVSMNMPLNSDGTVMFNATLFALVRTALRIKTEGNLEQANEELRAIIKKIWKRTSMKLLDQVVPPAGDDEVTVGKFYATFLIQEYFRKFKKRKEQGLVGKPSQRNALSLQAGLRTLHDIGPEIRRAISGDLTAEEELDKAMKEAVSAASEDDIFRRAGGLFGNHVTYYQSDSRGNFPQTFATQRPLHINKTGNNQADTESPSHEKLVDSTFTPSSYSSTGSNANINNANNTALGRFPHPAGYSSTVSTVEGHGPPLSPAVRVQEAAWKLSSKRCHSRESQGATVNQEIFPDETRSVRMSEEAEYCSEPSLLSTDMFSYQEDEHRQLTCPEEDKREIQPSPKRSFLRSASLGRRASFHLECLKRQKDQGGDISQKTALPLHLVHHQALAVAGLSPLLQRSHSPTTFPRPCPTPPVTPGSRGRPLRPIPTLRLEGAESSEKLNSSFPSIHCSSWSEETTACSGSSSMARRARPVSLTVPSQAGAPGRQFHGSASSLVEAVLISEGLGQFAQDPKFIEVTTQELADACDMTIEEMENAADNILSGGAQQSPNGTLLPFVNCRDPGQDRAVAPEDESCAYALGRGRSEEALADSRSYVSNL

Consider `CC1=C(C(=O)OC(C)C)[C@@H](c2cccc3nonc23)C([N+](=O)[O-])=C(C)N1`, for which the IC50 in assay [1] came out at 0.001 µM; in assay [2] it was 0.2 µM.

In the case of `CC1=C(C(=O)OC(C)C)[C@H](c2cccc3nonc23)C([N+](=O)[O-])=C(C)N1` (mixture of isomers), the half-inhibitory concentration (IC50) in assay [2] is 0.08 µM.

On to `O=C1CC(c2ccc(O)cc2)Oc2cc(O)cc(O)c21` (racemic), for which the IC50 in [3] was found to be 100 µM.

On to `CC(C)c1c(C(=O)Nc2ccccc2)c(-c2ccccc2)c(-c2ccc(F)cc2)n1CC[C@@H](O)C[C@@H](O)CC(=O)O` [ATORVASTATIN], for which the IC50 entry in [4] is “inactive at 10nM. Original reference for datapoint is pubmed_id: 17466325”.

Consider `O=c1cc(-c2ccccc2)oc2cc(O)c(O)c(O)c12` [BAICALEIN], for which the 50% inhibitory concentration (IC50) in [3] came to 85.1 µM.

On to `CC(C)COCC(CN(Cc1ccccc1)c1ccccc1)N1CCCC1` (configuration not stated) [BEPRIDIL], for which, in assay [5], the concentration for half-maximal inhibition (IC50) is 1.55 µM.

For the compound `O=C(/C=C/c1ccc(O)c(O)c1)OCCc1ccccc1` [CAFFEIC ACID PHENETHYL ESTER], in [6], the IC50 turned out to be 1.1 µM.

As to `CN1CCC(=C2c3ccccc3C=Cc3ccccc32)CC1` [CYPROHEPTADINE], the results for the IC50 in [7] and in assay [8] were 7.75 µM and 42.2 µM, respectively.

In the case of `COC(=O)CCc1ccc(OCC(O)CNC(C)C)cc1` (configuration not stated) [ESMOLOL], the concentration for half-maximal inhibition (IC50) in assay [9] came out at 450 µM.

In the case of `COc1ccc(CCN(C)CCCOc2ccc(S(=O)(=O)c3c(C(C)C)cn4ccccc34)cc2)cc1OC` [FANTOFARONE], the results for the IC50 in [10] and in assay [11] were 0.0014 µM and 0.15 µM, respectively.

In the case of `O=C(O)c1ccccc1Nc1ccccc1` [FENAMIC ACID], in assay [12], the IC50 turned out to be 470 µM.

In the case of `CCC(C)c1ccccc1OC(=O)NC` (configuration not stated) [FENOBUCARB], the half-maximal inhibitory concentration (IC50) in [8] came to 520 µM.

In the case of `OC(Cn1cncn1)(Cn1cncn1)c1ccc(F)cc1F` [FLUCONAZOLE], in assay [13], the concentration for half-maximal inhibition (IC50) entry is “inactive at 10uM. Original reference for datapoint is pubmed_id: 22975497”.

Consider `O=c1c(-c2ccc(O)cc2)coc2cc(O)cc(O)c12` [GENISTEIN], for which the IC50 in [3] came out at 57.5 µM.

Turning to `CCC(C)n1ncn(-c2ccc(N3CCN(c4ccc(OCC5COC(Cn6cncn6)(c6ccc(Cl)cc6Cl)O5)cc4)CC3)cc2)c1=O` (configuration not stated) [ITRACONAZOLE], in [13], the IC50 entry was “inactive at 10uM. Original reference for datapoint is pubmed_id: 22975497”.

As for `CC(=O)N1CCN(c2ccc(OCC3COC(Cn4ccnc4)(c4ccc(Cl)cc4Cl)O3)cc2)CC1` (configuration not stated) [KETOCONAZOLE], the IC50 in [14] turned out to be 3.5 µM.

Turning to `CC(C)[C@@H]1CC[C@@H](C)C[C@H]1O` [LEVOMENTHOL], in [15], the half-inhibitory concentration (IC50) came out at 74.6 µM.

On to `COc1ccc(OCCCN(C)CCOc2ccc3c(c2)OCO3)c([C@@H]2Sc3ccccc3N(C)C2=O)c1` [LEVOSEMOTIADIL], for which, in [5], the IC50 came to 1.29 µM.

In the case of `O=C1c2ccccc2-c2c3c(cc4ccnc1c24)OCO3` [LIRIODENINE], the half-inhibitory concentration (IC50) in assay [16] came out at 2.5 µM.

With `O=c1cc(N2CCOCC2)oc2c(-c3ccccc3)cccc12` [LY-294002], the IC50 in assay [17] stood at 12 µM.

As for `COCC(=O)O[C@]1(CCN(C)CCCc2nc3ccccc3[nH]2)CCc2cc(F)ccc2[C@@H]1C(C)C` [MIBEFRADIL], the IC50 in assay [18] is 1.1 µM.

On to `Clc1ccc(COC(Cn2ccnc2)c2ccc(Cl)cc2Cl)c(Cl)c1` (configuration not stated) [MICONAZOLE], for which the half-inhibitory concentration (IC50) in assay [14] amounted to 3 µM.

For `O=c1c(O)c(-c2ccc(O)cc2)oc2cc(O)ccc12` [RESOKAEMPFEROL], the IC50 in assay [3] was determined as 27.5 µM.

`O=C(/C=C/c1ccc(O)c(O)c1/C=C/c1ccc(O)c(O)c1)O[C@H](Cc1ccc(O)c(O)c1)C(=O)O` [SALVIANOLIC ACID A]: in [19], the 50% inhibitory concentration (IC50) was determined as 38.3 µM.

Regarding `CC(C)CC(N(C)C)C1(c2ccc(Cl)cc2)CCC1` (configuration not stated) [SIBUTRAMINE], the IC50 in assay [20] is 9.97 µM.

As for `CN1CCN(c2ncc(-c3cc(Cl)cc(Cl)c3Cl)c(N)n2)CC1` [SIPATRIGINE], the IC50 in assay [21] stood at 6.02 µM.

Consider `CCN(CC)CC#CC(C)(C)OC(=O)C(O)(c1ccccc1)C1CCCCC1` (configuration not stated) [TEMIVERINE], for which the half-inhibitory concentration (IC50) in assay [22] came out at 27 µM.

With `CCC(C)(C)C(=O)O[C@H]1C[C@@H](C)C=C2C=C[C@H](C)[C@H](CC[C@@H](O)C[C@@H](O)CC(=O)O)[C@H]21` [TENIVASTATIN], the IC50 in assay [23] amounted to 3.9 µM.

Take `CC(CC(c1ccccc1)c1ccccc1)NC(C)(C)C` (configuration not stated) [TERODILINE]: the concentration for half-maximal inhibition (IC50) in [22] was found to be 33.5 µM.

Source of the values: ChEMBL document CHEMBL3638030, “IC50 data for the L-type calcium channel extracted from a set of literature articles”.
